pEC50: −log10 of the molar value. Starred links: 1 amine or outer side, 2 acyl side, 3 side chain; linkers in the order of their positions; H or OH if unused. Non-standard residues stand in square brackets, D forms with d. Groups on a side chain read outwards from the residue. *: point of attachment. C18 diacid = O=C(O)CCCCCCCCCCCCCCCCC(=O)*; αMePhe(2-F) = C[C@](N)(Cc1ccccc1F)C(=O)O; γGlu = O=C(O)[C@H](CCC(=O)[*:2])N[*:1]; αMe4Pal = C[C@](N)(Cc1ccncc1)C(=O)O; αMeY = C[C@](N)(Cc1ccc(O)cc1)C(=O)O; 4Pal = N[C@@H](Cc1ccncc1)C(=O)O; αMeL = CC(C)C[C@](C)(N)C(=O)O; Orn = NCCC[C@H](N)C(=O)O; AEEA = NCCOCCOCC(=O)O; Aib = CC(C)(N)C(=O)O

Common to all, as to format: cell-based
Experiment [1] concerns the target T1, hGIPR (Homo sapiens, UniProt P48546).
T1 sequence (P48546 22-466): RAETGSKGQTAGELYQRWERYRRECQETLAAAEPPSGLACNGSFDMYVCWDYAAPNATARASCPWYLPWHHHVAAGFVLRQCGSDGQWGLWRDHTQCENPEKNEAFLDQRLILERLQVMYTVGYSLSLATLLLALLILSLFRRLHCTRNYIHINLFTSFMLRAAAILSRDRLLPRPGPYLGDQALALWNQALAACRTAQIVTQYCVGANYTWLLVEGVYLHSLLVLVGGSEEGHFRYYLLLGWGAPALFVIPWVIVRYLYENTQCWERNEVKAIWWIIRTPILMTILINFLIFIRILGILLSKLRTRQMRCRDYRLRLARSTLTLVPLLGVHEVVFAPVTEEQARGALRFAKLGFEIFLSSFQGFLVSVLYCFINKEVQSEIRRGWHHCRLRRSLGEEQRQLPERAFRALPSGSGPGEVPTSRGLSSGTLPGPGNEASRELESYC
Put plainly: Functional cAMP activity in the presence of 1% HSA. Conditions: read-out: cAMP Rel EC50, hGIPR.

Experiment [2] concerns the target T2, hGLP-1R (Homo sapiens, UniProt P43220). In words: Functional cAMP activity in the presence of 1% HSA. The following applies: read-out: cAMP Rel EC50, hGLP-1R.
In a further experiment the target is human GcgR (Homo sapiens, UniProt P47871). Put plainly: Functional cAMP activity in the presence of 1% HSA. The following applies: read-out: cAMP Rel EC50, hGcgR.
Sequence of human GcgR (P47871 26-477): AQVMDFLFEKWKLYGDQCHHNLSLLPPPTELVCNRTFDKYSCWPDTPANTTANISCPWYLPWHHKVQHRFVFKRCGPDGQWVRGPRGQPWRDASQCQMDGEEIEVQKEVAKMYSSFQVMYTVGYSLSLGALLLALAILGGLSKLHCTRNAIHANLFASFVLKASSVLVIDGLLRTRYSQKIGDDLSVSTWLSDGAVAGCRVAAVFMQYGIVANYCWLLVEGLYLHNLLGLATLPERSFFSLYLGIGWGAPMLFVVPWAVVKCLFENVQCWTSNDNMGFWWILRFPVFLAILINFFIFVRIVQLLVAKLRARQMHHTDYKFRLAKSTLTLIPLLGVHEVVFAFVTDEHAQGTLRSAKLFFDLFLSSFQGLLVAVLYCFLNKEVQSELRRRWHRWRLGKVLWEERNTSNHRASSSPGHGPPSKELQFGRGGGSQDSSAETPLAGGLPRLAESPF
In experiment [3] the target is T1, hGIPR. In words: Functional cAMP activation in the presence of 0.1% casein (no HSA). Conditions: read-out: Relative cAMP EC50, hGIPR.
Experiment [4] addresses T2, hGLP-1R. Described as above. Conditions: read-out: Relative cAMP EC50, hGLP-1R.
In another experiment the target is hGcgR (Homo sapiens, UniProt P47871). The experiment is described as above. The following applies: read-out: Relative cAMP EC50, hGcgR.
Sequence of hGcgR (P47871 26-477): as above
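For Relative cAMP EC50, hGIPR in this document: intracellular cAMP rise after 30 min at 37 °C read by HTRF against a standard curve, scaled between buffer alone (0%) and top control ligand concentration (100%), four-parameter fit.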
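For Relative cAMP EC50, hGLP-1R in this document: intracellular cAMP rise after 30 min at 37 °C read by HTRF, normalized between buffer only (0%) and maximal control ligand (100%), four-parameter variable-slope fit.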
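For Relative cAMP EC50, hGcgR in this document: intracellular cAMP rise after 30 min at 37 °C, read by HTRF against a cAMP standard curve, scaled from buffer only (0%) to maximal control ligand response (100%).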

T2 sequence (P43220 24-463): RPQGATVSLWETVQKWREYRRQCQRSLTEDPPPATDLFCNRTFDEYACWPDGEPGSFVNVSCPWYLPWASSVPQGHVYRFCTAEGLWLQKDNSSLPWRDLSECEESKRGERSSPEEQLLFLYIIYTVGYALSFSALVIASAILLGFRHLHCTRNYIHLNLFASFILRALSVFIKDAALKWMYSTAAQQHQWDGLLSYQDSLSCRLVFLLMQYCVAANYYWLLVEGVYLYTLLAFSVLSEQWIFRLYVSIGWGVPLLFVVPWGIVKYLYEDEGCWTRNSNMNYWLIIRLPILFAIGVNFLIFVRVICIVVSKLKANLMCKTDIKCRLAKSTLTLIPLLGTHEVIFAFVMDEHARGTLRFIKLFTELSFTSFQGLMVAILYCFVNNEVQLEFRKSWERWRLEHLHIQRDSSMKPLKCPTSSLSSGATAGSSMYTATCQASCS

By pEC50 is commonly meant the EC50 on a negative log10 scale, so that one unit is a factor of ten. “H-Y[Aib]QGT[αMePhe(2-F)]TSD[4Pal]SI[αMeL]LD[Orn]K([AEEA-γGlu-C18 diacid])AQ[Aib][Orn]FIEYLIEGGPSSGEPPPSEG-NH2 [Example 489]”: the pEC50 at hGIPR [1] is 8.90; at hGLP-1R [2] it was 7.93; at human GcgR, 6.28; on hGIPR [3], 10.92; on hGLP-1R [4], 9.76; on hGcgR, 8.64.

Regarding “H-Y[Aib]QGT[αMePhe(2-F)]TSD[4Pal]SI[αMeL]LD[Orn]K([AEEA-γGlu-C18 diacid])AQ[Aib][Orn]FIEYLLEGGPSSGEPPPEEG-NH2 [Example 494]”, the pEC50 was 8.97 on hGIPR [1]; 7.70 at hGLP-1R [2]; 6.48 on human GcgR; 10.85 on hGIPR [3]; 9.68 on hGLP-1R [4]; 8.90 at hGcgR.

As for “H-Y[Aib]QGT[αMePhe(2-F)]TSD[4Pal]SI[αMeL]LD[Orn]K([AEEA-γGlu-C18 diacid])AQ[αMe4Pal]EFI[dE][αMeY]LAEGGPSSGAPPPSGS-NH2 [Example 642]”, the pEC50 at hGIPR [1] is 9.10; on hGLP-1R [2] it was 7.17; on human GcgR, 6.28; on hGIPR [3], 11.10; at hGLP-1R [4] it was 9.32; on hGcgR it was 8.46.

Turning to “H-Y[Aib]QGT[αMePhe(2-F)]TSD[4Pal]SI[αMeL]LD[Orn]K([AEEA-γGlu-C18 diacid])AQ[αMe4Pal]EFI[dE][αMeY]LIEGGPSSGAPPPSGS-NH2 [Example 640]”, the pEC50 at hGIPR [1] was 9.23; at hGLP-1R [2], 7.56; on human GcgR, 6.14; at hGIPR [3] it was 11.16; at hGLP-1R [4] it was 9.54; at hGcgR it was 8.02.

For “H-Y[Aib]QGT[αMePhe(2-F)]TSD[4Pal]SI[αMeL]LD[Orn]K([AEEA-γGlu-C18 diacid])AQ[αMe4Pal]EFI[dE][αMeY]LLEGGPSSGAPPPSGE-NH2 [Example 615]”, the pEC50 at hGIPR [1] is 9.02; at hGLP-1R [2] it was 7.08; at human GcgR, 6.16; on hGIPR [3], 11.08; at hGLP-1R [4], 9.24; on hGcgR, 8.41.

Regarding “H-Y[Aib]QGT[αMePhe(2-F)]TSD[4Pal]SI[αMeL]LD[Orn]K([AEEA-γGlu-C18 diacid])AQ[αMe4Pal]EFI[dE][αMeY]LLEGGPSSGAPPPSGS-NH2 [Example 641]”, the pEC50 on hGIPR [1] was 9.08; on hGLP-1R [2], 7.17; on human GcgR, 6.35; on hGIPR [3] it was 11.09; at hGLP-1R [4], 9.31; at hGcgR, 8.43.

Turning to “H-Y[Aib]QGT[αMePhe(2-F)]TSD[4Pal]SI[αMeL]LD[Orn]K([AEEA-γGlu-C18 diacid])AQ[αMe4Pal]EFI[dE][αMeY]LLEGGPSSGEPPPSGS-NH2 [Example 645]”, the negative-log EC50 (pEC50) is 9.06 on hGIPR [1]; 7.12 on hGLP-1R [2]; 6.40 on human GcgR; 11.14 at hGIPR [3]; 9.22 on hGLP-1R [4]; 8.49 at hGcgR.

In the case of “H-Y[Aib]QGT[αMePhe(2-F)]TSD[4Pal]SI[αMeL]LD[Orn]K([AEEA-γGlu-C18 diacid])AQ[αMe4Pal]EFI[dE][αMeY]LQEGGPSSGAPPPSGS-NH2 [Example 643]”, the pEC50 on hGIPR [1] is 8.79; at hGLP-1R [2], 7.22; at human GcgR, 5.93; at hGIPR [3] it was 10.65; on hGLP-1R [4] it was 9.13; at hGcgR, 7.80.

“H-Y[Aib]QGT[αMePhe(2-F)]TSD[4Pal]SI[αMeL]LD[Orn]K([AEEA-γGlu-C18 diacid])AQ[αMe4Pal]EFI[dE][αMeY]LQEGGPSSGEPPPSGS-NH2 [Example 648]”: the pEC50 was 8.85 at hGIPR [1]; 7.06 on hGLP-1R [2]; 5.93 at human GcgR; 10.41 at hGIPR [3]; 8.75 at hGLP-1R [4]; 7.69 at hGcgR.

Consider “H-Y[Aib]QGT[αMePhe(2-F)]TSD[4Pal]SI[αMeL]LD[Orn]K([AEEA-γGlu-C18 diacid])AQ[αMe4Pal][Orn]FI[dE][αMeY]LEEGGPSSGEPPPEGT-NH2 [Example 506]”, for which the pEC50 at hGIPR [1] is 7.54; at hGLP-1R [2], 6.65; at human GcgR it was 5.63; at hGIPR [3], 9.51; on hGLP-1R [4] it was 8.67; on hGcgR, 7.77.

“H-Y[Aib]QGT[αMePhe(2-F)]TSD[4Pal]SI[αMeL]LD[Orn]K([AEEA-γGlu-C18 diacid])AQ[αMe4Pal][Orn]FI[dE][αMeY]LIEGGPSSGAPPPESE-NH2 [Example 755]”: the pEC50 is 8.86 at hGIPR [1]; 7.62 on hGLP-1R [2]; 6.56 on human GcgR; 11.09 at hGIPR [3]; 9.76 on hGLP-1R [4]; 8.64 on hGcgR.

With “H-Y[Aib]QGT[αMePhe(2-F)]TSD[4Pal]SI[αMeL]LD[Orn]K([AEEA-γGlu-C18 diacid])AQ[αMe4Pal][Orn]FI[dE][αMeY]LIEGGPSSGAPPPESEE-NH2 [Example 756]”, the pEC50 on hGIPR [1] is 8.79; at hGLP-1R [2], 7.55; on human GcgR, 6.43; at hGIPR [3] it was 11.02; on hGLP-1R [4], 9.67; on hGcgR, 8.65.

As to “H-Y[Aib]QGT[αMePhe(2-F)]TSD[4Pal]SI[αMeL]LD[Orn]K([AEEA-γGlu-C18 diacid])AQ[αMe4Pal][Orn]FI[dE][αMeY]LIEGGPSSGDPPPEGE-NH2 [Example 727]”, the pEC50 at hGIPR [1] was 8.96; at hGLP-1R [2] it was 7.62; on human GcgR it was 6.54; at hGIPR [3], 10.96; at hGLP-1R [4] it was 9.57; at hGcgR, 8.62.

Take “H-Y[Aib]QGT[αMePhe(2-F)]TSD[4Pal]SI[αMeL]LD[Orn]K([AEEA-γGlu-C18 diacid])AQ[αMe4Pal][Orn]FI[dE][αMeY]LIEGGPSSGDPPPEGTE-NH2 [Example 731]”: the pEC50 at hGIPR [1] is 8.90; on hGLP-1R [2], 7.56; at human GcgR it was 6.54; on hGIPR [3] it was 10.93; on hGLP-1R [4], 9.57; at hGcgR it was 8.63.

As to “H-Y[Aib]QGT[αMePhe(2-F)]TSD[4Pal]SI[αMeL]LD[Orn]K([AEEA-γGlu-C18 diacid])AQ[αMe4Pal][Orn]FI[dE][αMeY]LIEGGPSSGDPPPEGTGE-NH2 [Example 732]”, the pEC50 on hGIPR [1] is 8.90; on hGLP-1R [2] it was 7.57; on human GcgR it was 6.49; at hGIPR [3], 10.93; at hGLP-1R [4], 9.57; at hGcgR it was 8.66.

On to “H-Y[Aib]QGT[αMePhe(2-F)]TSD[4Pal]SI[αMeL]LD[Orn]K([AEEA-γGlu-C18 diacid])AQ[αMe4Pal][Orn]FI[dE][αMeY]LIEGGPSSGDPPPETE-NH2 [Example 730]”, for which the pEC50 at hGIPR [1] was 8.89; at hGLP-1R [2] it was 7.48; at human GcgR it was 6.67; at hGIPR [3], 10.91; on hGLP-1R [4], 9.61; at hGcgR, 8.61.

“H-Y[Aib]QGT[αMePhe(2-F)]TSD[4Pal]SI[αMeL]LD[Orn]K([AEEA-γGlu-C18 diacid])AQ[αMe4Pal][Orn]FI[dE][αMeY]LIEGGPSSGEPPPEAE-NH2 [Example 676]”: the pEC50 is 8.97 on hGIPR [1]; 7.61 on hGLP-1R [2]; 6.68 at human GcgR; 10.97 on hGIPR [3]; 9.57 on hGLP-1R [4]; 8.63 on hGcgR.
